Results: patent publication US20100168112A1, “2-Substituted and 4-substituted aryl nitrone compounds” (RENOVIS, INC., priority 2004, published 2010)
pEC50: −log10 of the molar value. Where a name gives a salt, the structure may show the parent alone.

Columns and labels:
[1] = DPPH free radical-scavenging/antioxidant assay; format: biochemical; conditions: 50 μM DPPH in 80% methanol; 24 h time point; read-out: EC50 (concentration at which a compound reduces by 50% the peak absorbance of DPPH at 520 nm)
Description: Nitrone compounds of the present invention were tested for their free-radical scavenging/antioxidant activity in an in vitro assay that is accepted by those skilled in the art as a model for conditions involving the generation of free radicals. The assay is based on a reaction between a free-radical donor, 2,2-diphenyl-1-picrylhydrazyl (DPPH), and a radical scavenger/antioxidant to be tested for free-radical scavenging activity. Upon donation of the free-radical electron to the purported radical scavenger, the peak visible absorbance of DPPH (515-520 nm) decreases so that optical density readings at this part of the visual spectrum reflect the progression of the following reaction:
where AH is a hypothetical radical scavenger/antioxidant. The assay is based on a protocol originally detailed in Brand-Williams, W. et al., 1995, Use of a Free Radical Method to Evaluate Antioxidant Activity, Lebensm. Wiss. Technol., 28:25-30, with further modifications described in L. R. Fukumoto and G. Mazza, 2000, Assessing Antioxidant and Prooxidant Activities of Phenolic Compounds, J. Agric. Food Chem., 48:3597-3604.
The antioxidant assay was performed using Perkin-Elmer 96-well, clear-bottom, black-wall plates (ordered from E & K Scientific Products) and a Tecan Safire absorbance plate reader. The positive controls were Trolox (6-hydroxy-2,5,7,8-tetramethylchromane-2-carboxylic acid, Sigma-Aldrich), BHA (2(3)-tert-butylhydroquinone monomethyl ether, Sigma-Aldrich), PBN (C-(phenyl)-N-(tert-butyl)nitrone, Sigma-Aldrich) and S-PBN (C-(2-sulfophenyl)-N-(tert-butyl)nitrone, sodium salt, prepared according to E. G. Janzen and R. V. Shetty, 1979, Tetrahedron Lett., 35: 3229-32), and the negative control (i.e., vehicle) was DMSO. In brief, 2 μL of 100× DMSO stock of the desired final concentration of each control or nitrone compound to be tested in the same batch was added to a separate well. To each well was then added 198 μL of a freshly made 50 μM DPPH (Sigma-Aldrich) solution in 80% methanol using a multi-channel pipette. The absorbance was immediately read on the plate reader at 520 nm and thereafter read periodically to assess kinetics until all reactions reached completion (i.e., steady state). Since the steady-state point was 24 h, the assay results are shown from the 24 h time point. The absorbance at 520 nm (OD) was plotted versus the concentrations of the controls and nitrone compounds to assess dose-response and interpolate the EC50 values of the controls and test compounds.

[2] = Pharmacokinetic evaluation following intravenous and oral administration in rats; format: in vivo; conditions: male, Sprague-Dawley; for Cmax / Tmax / bioavailability: 5 mg/kg; for Cmax: rat plasma; for Cmax / Tmax: oral gavage, 2 mg/mL at 2.5 mL/kg; for clearance / Vd / Tmax / bioavailability / half-life: plasma, rat; for clearance / Vd / half-life: 1 mg/kg; for clearance / Vd: intravenous administration, 1 mg/mL at 1.0 mL/kg; for clearance: read-out: CI (clearance) (converted); for Vd: read-out: Vd (volume of distribution); for bioavailability: po 2 mg/mL at 2.5 mL/kg vs iv 1 mg/mL at 1.0 mL/kg, dose-normalized, read-out: F (%) oral bioavailability; for half-life: intravenous, read-out: T1/2 elimination half life (converted)
Description: Male Sprague-Dawley rats were given at least 24 hours acclimation before experiment initiation. During acclimation period, all animals received food and water ad libitum. However, food (not water) was removed from the animal's cages up to 12 hours before initiation of the experiment. During the first 4 hours of experimentation, the animals received only water ad libitum. Two to three animals for iv and three animals for oral administration were tested. For iv formulation nitrone compounds of this invention were dissolved (1 mg/mL) in a mixture of 5% dimethyl acetamide (v/v), 0 to 4% Tween 80 (v/v), 10 to 40% PEG 400 (v/v) and the rest percentage of water (v/v). For oral formulation nitrone compounds of this invention were dissolved (2 mg/mL) in a mixture of 4% of 10% Tween in water and 96% of 0.5% carboxymethyl cellulose (medium viscosity) in water; or 4% of 10% Tween in water, 48% of 0.5% carboxymethyl cellulose (medium viscosity) in water, and 48% of 0.5% Hydroxypropyl Methylcellulose/0.2% Sodium Lauryl Sulfate in water. These formulations were stored at 5° C. until the experiment. Formulations were then stir-mixed at least half an hour before dosing. Exactly 200 μL of each left-over formulation was diluted with CH3CN/H2O for concentration analysis. The animals were weighed before dosing. The body weight was used to calculate the true dose for each animal:
IV dosing: • Dose volume (mL)=1.0 mL/kg The intravenous dose was administered through the jugular vein catheter or tail vein in less than 1 minute.
PO dosing: • Dose volume (mL)=2.5 mL/kg The oral dose was administered by oral gavage.
For IV dosing, blood samples were collected (using a pre-heparinized syringe) via the carotid artery or jugular vein catheter at t=2, 5, 15, 30, 60, 120, 180, 360, and 480 minutes post dosing. For PO dosing, blood samples were collected (using a pre-heparinized syringe) via the carotid artery or jugular vein catheter before dosing and at t=5, 15, 30, 60, 120, 180, 360, and 480 minutes post dosing. For some nitrone compounds a 1440 minutes (24 hours) sample was also taken for both IV and PO administrations. About 250 μL of blood was obtained at each time point from the animals. Equal volumes of 0.9% normal saline were replaced to prevent dehydration. The whole blood samples were maintained on ice until centrifugation. Blood samples were then centrifuged at 14,000 rpm for 10 minutes at 4° C. and the upper plasma layer transferred into a clean vial and stored at −80° C. The resulting plasma samples were then analyzed by mass spectroscopy using standard methods.
All the samples from above assays were analyzed on a PE-Sciex API 3000 triple quadrupole with a Turbo Ion Spray source. Nitrone compounds of this invention were separated from the matrix via a linear gradient reverse-phase chromatography using a C18 column, such as Thermo BDS Hypersil C18 (100×4.6 mm, 5 micron particle, 120A pore size). The mobile Phases were:
Nitrone compounds were detected by the mass spectrometer in the positive ion multiple reaction monitoring mode (MRM). For quantitative analysis, a standard curve was prepared by spiking a stock solution of the nitrone compound to the appropriate matrix to achieve a quantitation curve range and analyzed the standards in the same manner as the samples.
Pharmacokinetic parameters of the aryl nitrone compounds were determined by a noncompartmental analysis using WinNonlin-Pro (Version 4.1, Pharsight Corporation). Average and standard deviation of the parameters were calculated using standard formulas in Microsoft Excel.

Compound: 2(3)-tert-butylhydroquinone monomethyl ether [BHA, reference compound]
- pEC50 [1]: > 5.00

Compound: COC(=O)c1ccccc1/C=[N+](\[O-])C(C)(C)C [Compound 1, N-(tert-Butyl)-C[2-(methoxycarbonyl)phenyl]nitrone]
- pEC50 [1]: 3.00 to 3.30

Compound: COC(=O)c1ccccc1/C=[N+](\[O-])C1CCCCC1 [Compound 2, N-Cyclohexyl-C-[2-(methoxycarbonyl)phenyl]nitrone]
- pEC50 [1]: < 3.00

Compound: COC(=O)c1ccccc1/C=[N+](\[O-])Cc1ccccc1 [Compound 3, N-Benzyl-C-[2-(methoxycarbonyl)phenyl]nitrone]
- pEC50 [1]: 3.00 to 3.30

Compound: COC(=O)c1c(/C=[N+](\[O-])C(C)(C)C)cc(OC)cc1OC [Compound 4, N-(tert-Butyl)-C-[2-(methoxycarbonyl)-3,5-dimethoxyphenyl]-nitrone]
- pEC50 [1]: 3.30 to 4.00

Compound: COC(=O)c1c(/C=[N+](\[O-])C2CCCCC2)cc(OC)cc1OC [Compound 5, N-Cyclohexyl-C-[2-(methoxycarbonyl)-3,5-dimethoxyphenyl]-nitrone]
- pEC50 [1]: 3.30 to 4.00

Compound: COC(=O)c1c(/C=[N+](\[O-])Cc2ccccc2)cc(OC)cc1OC [Compound 6, N-Benzyl-C-[2-(methoxycarbonyl)-3,5-dimethoxyphenyl]-nitrone]
- pEC50 [1]: 3.30 to 4.00

Compound: CC(C)(C)/[N+]([O-])=C/c1ccccc1C(=O)O [Compound 7, N-(tert-Butyl)-C-(2-carboxyphenyl)nitrone]
- pEC50 [1]: 3.30 to 4.00

Compound: O=C(O)c1ccccc1/C=[N+](\[O-])C1CCCCC1 [Compound 8, N-Cyclohexyl-C-(2-carboxyphenyl)nitrone]
- pEC50 [1]: 4.00 to 5.00

Compound: O=C(O)c1ccccc1/C=[N+](\[O-])Cc1ccccc1 [Compound 9, N-Benzyl-C-(2-carboxyphenyl)nitrone]
- pEC50 [1]: 4.00 to 5.00

Compound: COc1cc(/C=[N+](\[O-])C(C)(C)C)c(C(=O)O)c(OC)c1 [Compound 10, N-(tert-Butyl)-C-(2-carboxy-3,5-dimethoxyphenyl)nitrone]
- pEC50 [1]: 3.00 to 3.30

Compound: COc1cc(/C=[N+](\[O-])C2CCCCC2)c(C(=O)O)c(OC)c1 [Compound 11, N-Cyclohexyl-C-(2-carboxy-3,5-dimethoxyphenyl)nitrone]
- pEC50 [1]: 4.00 to 5.00

Compound: COc1cc(/C=[N+](\[O-])Cc2ccccc2)c(C(=O)O)c(OC)c1 [Compound 12, N-Benzyl-C-(2-carboxy-3,5-dimethoxyphenyl)nitrone]
- pEC50 [1]: 4.00 to 5.00

Compound: CN(C)C(=O)c1ccccc1/C=[N+](\[O-])C(C)(C)C [Compound 16, N-(tert-Butyl)-C-[2-(N,N-dimethylcarbamoyl)phenyl]nitrone]
- pEC50 [1]: 3.30 to 4.00

Compound: CN1CCN(S(=O)(=O)c2ccc(/C=[N+](\[O-])C(C)(C)C)cc2)CC1 [Compound 22, N-(tert-Butyl)-C-[4-(4-methyl-piperazine-1-sulfonyl)phenyl]nitrone]
- pEC50 [1]: < 3.00
- Cmax [2]: 703 ng/mL
- clearance [2]: 36.8 mL/min/kg
- Vd [2]: 1.83 L/kg
- Tmax [2]: 14.4 min
- bioavailability [2]: 15.6%
- half-life [2]: 34.2 min

Compound: CCNS(=O)(=O)c1ccc(/C=[N+](\[O-])C(C)(C)C)cc1 [Compound 24, N-(tert-Butyl)-C-[4-(ethylsulfamoyl)phenyl]nitrone]
- pEC50 [1]: < 3.00
- Cmax [2]: 198 ng/mL
- clearance [2]: 59 mL/min/kg
- Vd [2]: 2.58 L/kg
- Tmax [2]: 12 min
- bioavailability [2]: 7.19%
- half-life [2]: 31.2 min

Compound: CC(C)(C)/[N+]([O-])=C/c1ccc(S(=O)(=O)Nc2ccc(F)cc2)cc1 [Compound 25, N-(tert-Butyl)-C-[4-(4-fluoro-phenylsulfamoyl)phenyl]nitrone]
- pEC50 [1]: < 3.00
- Cmax [2]: 10 ng/mL
- clearance [2]: 29.3 mL/min/kg
- Vd [2]: 1.12 L/kg
- Tmax [2]: 15 min
- bioavailability [2]: 0.85%
- half-life [2]: 25.8 min

Compound: CC(C)(C)/[N+]([O-])=C/c1ccc(S(=O)(=O)N2CCCCC2)cc1 [Compound 28, N-(tert-Butyl)-C-[4-(piperidine-1-sulfonyl)phenyl]nitrone]
- pEC50 [1]: < 3.00
- Cmax [2]: 134 ng/mL
- clearance [2]: 19 mL/min/kg
- Vd [2]: 19.9 L/kg
- Tmax [2]: 64.8 min
- bioavailability [2]: 13.8%
- half-life [2]: 782 min

Compound: CC(C)(C)/[N+]([O-])=C/c1ccc(S(=O)(=O)N2CCCC2)cc1 [Compound 29, N-(tert-Butyl)-C-[4-(pyrrolidine-1-sulfonyl)phenyl]nitrone]
- pEC50 [1]: < 3.00
- Cmax [2]: 114 ng/mL
- clearance [2]: 38 mL/min/kg
- Vd [2]: 0.97 L/kg
- Tmax [2]: 11.4 min
- bioavailability [2]: 4.3%
- half-life [2]: 17.4 min

Compound: COC(=O)c1[nH]c2ccccc2c1/C=[N+](\[O-])C(C)(C)C [Compound 77, N-(tert-Butyl)-C-[2-(methoxycarbonyl)-1H-indol-3-yl]nitrone]
- pEC50 [1]: < 3.00

Compound: COC(=O)c1[nH]c2ccccc2c1/C=[N+](\[O-])C1CCCCC1 [Compound 78, N-Cyclohexyl-C-[2-(methoxycarbonyl)-1H-indol-3-yl]nitrone]
- pEC50 [1]: < 3.00

Compound: COC(=O)c1[nH]c2ccccc2c1/C=[N+](\[O-])Cc1ccccc1 [Compound 79, N-Benzyl-C[2-(methoxycarbonyl)-1H-indol-3-yl]nitrone]
- pEC50 [1]: < 3.00

Compound: CC(C)(C)[N+]([O-])=Cc1ccccc1 [PBN, C-(phenyl)-N-(tert-butyl)nitrone, reference compound]
- pEC50 [1]: < 3.00

Compound: CC(C)(C)[N+]([O-])=Cc1ccccc1S(=O)(=O)O [SPBN, C-(2-sulfophenyl)-N-(tert-butyl)nitrone, sodium salt, reference compound]
- pEC50 [1]: < 3.00

Compound: Cc1c(C)c2c(c(C)c1O)CCC(C)(C(=O)O)O2 (stereo not shown) [Trolox, 6-hydroxy-2,5,7,8-tetramethylchromane-2-carboxylic acid, reference compound]
- pEC50 [1]: > 5.00
